Earlier results in patent US8357659B2, “Method of treating pain or itching with APETx2 peptide toxin” (priority 2008, dated 2013).

Columns and labels:
Conditions in all cases: cited from earlier work
[1] = biological target: T1, ASIC3 (Rattus norvegicus, UniProt O35240)
T1 sequence (O35240 1-533): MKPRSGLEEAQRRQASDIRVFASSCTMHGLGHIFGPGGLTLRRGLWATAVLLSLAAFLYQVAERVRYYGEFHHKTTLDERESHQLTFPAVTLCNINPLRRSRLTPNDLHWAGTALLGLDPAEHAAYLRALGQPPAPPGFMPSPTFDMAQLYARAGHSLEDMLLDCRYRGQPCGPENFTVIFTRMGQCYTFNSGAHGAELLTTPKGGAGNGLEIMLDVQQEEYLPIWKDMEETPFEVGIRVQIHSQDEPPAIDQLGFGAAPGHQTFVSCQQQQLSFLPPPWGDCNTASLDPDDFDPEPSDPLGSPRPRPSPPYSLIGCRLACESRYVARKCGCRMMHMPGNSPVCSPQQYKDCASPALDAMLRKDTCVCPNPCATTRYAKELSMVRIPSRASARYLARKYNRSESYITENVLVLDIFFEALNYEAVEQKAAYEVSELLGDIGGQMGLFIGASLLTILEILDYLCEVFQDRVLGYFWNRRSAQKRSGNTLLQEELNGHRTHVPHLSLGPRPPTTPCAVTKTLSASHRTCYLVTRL

[2] = biological target: T2, ASIC1b (Rattus norvegicus, UniProt P55926)
T2 sequence (P55926 1-559 isoform P55926-3): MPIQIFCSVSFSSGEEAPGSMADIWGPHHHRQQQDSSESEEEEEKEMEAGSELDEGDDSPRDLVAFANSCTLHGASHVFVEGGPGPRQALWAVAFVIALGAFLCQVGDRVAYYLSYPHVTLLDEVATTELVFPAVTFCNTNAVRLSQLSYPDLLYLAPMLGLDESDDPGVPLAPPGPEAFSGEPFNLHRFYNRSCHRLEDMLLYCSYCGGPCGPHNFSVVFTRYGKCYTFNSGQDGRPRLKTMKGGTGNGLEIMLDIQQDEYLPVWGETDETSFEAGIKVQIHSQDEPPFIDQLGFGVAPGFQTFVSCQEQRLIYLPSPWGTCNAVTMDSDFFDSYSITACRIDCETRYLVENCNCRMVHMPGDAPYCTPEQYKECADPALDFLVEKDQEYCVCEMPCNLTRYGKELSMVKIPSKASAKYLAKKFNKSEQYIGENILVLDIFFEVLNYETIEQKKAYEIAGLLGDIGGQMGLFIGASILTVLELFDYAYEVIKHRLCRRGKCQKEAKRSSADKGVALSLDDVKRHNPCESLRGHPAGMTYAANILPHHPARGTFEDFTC

[3] = biological target: T3, ASIC2a (Rattus norvegicus, UniProt Q62962)
T3 sequence (Q62962 1-512): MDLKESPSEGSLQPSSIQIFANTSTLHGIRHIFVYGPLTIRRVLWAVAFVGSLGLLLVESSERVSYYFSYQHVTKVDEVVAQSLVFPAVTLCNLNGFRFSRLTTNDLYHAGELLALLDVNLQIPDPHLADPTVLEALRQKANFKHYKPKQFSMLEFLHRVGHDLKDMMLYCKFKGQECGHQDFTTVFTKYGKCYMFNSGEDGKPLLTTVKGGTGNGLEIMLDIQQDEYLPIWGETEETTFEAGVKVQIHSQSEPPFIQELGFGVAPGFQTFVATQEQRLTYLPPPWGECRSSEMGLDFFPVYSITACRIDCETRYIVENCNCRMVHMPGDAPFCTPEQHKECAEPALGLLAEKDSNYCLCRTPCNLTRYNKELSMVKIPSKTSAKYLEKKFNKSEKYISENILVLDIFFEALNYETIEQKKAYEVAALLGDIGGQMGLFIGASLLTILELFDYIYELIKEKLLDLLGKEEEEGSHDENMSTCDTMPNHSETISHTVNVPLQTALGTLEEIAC

peptide of 42 amino acids (SEQ ID NO: 3), three disulphide bonds, from sea anemone Anthopleura elegantissima; blocks ASIC3 [APETx2]
effect on the ASIC3 sustained current ([1]; sustained current): without affecting | IC50 ([1]; transient current, reversible block, read-out: IC50 for inhibition of the ASIC3 transient current): 63 nM | effect on ASIC1b isoform [2]: does not have any effect | effect on ASIC2a isoform [3]: does not have any effect
